Like-named read-outs stand apart in the source and are kept apart here.
Experiments:
[1] = tested on: KKA^y mice; assay: Hypoglycemic and hypolipidemic actions in mice; format: in vivo; settings: Mus musculus, po, 96 h, four days; for inhibition in vivo at 0.001 %: 0.001% in powdery diet; for inhibition in vivo at 0.005 %: 0.005% in powdery diet
From the text: Hypoglycemic and Hypolipidemic Actions in Mice
Test compounds were mixed in a powdery diet (CE-2, Japan Clea) at the concentration of 0.01% (compounds of Examples 12, 30, 89, 186), 0.005% (compounds of Examples 7, 80, 82, 181, 182, 184, 256, 262, 283), 0.001% (compounds of Examples 9, 104, 110, 155, 156, 160, 167, 169, 172, 174, 176, 189), or 0.0003% (compounds of Examples 38, 40, 44), and freely given to KKA^y mice (9 to 12 weeks old, 5 mice in a group), a model of obese and type 2 diabetes mellitus, for four days. During this period, water was given freely. Blood was sampled from orbital venous plexus, and glucose and triglyceride levels in plasma separated from blood were determined enzymatically using L type Wako Glu2 (Wako Pure Chemical Industries, Ltd.) or L type Wako TG•H (Wako Pure Chemical Industries, Ltd.), respectively.
In the Table, the value of each treatment group is represented as percent reduction compared with the non-treatment group.

[2] = target: T1, PPARγ-RXRα heterodimer (Homo sapiens, UniProt P37231); assay: PPARγ-RXRα heterodimer ligand activity (luciferase reporter, PPARγ:RXRα:4ERPP/CHO-K1 cells); format: cell-based; settings: 48 hours, concentration for 50% of the maximum fold induction
T1 construct: expressed in transfected cells; host or cells: CHO-K1
T1 sequence (P37231 1-477 isoform P37231-2): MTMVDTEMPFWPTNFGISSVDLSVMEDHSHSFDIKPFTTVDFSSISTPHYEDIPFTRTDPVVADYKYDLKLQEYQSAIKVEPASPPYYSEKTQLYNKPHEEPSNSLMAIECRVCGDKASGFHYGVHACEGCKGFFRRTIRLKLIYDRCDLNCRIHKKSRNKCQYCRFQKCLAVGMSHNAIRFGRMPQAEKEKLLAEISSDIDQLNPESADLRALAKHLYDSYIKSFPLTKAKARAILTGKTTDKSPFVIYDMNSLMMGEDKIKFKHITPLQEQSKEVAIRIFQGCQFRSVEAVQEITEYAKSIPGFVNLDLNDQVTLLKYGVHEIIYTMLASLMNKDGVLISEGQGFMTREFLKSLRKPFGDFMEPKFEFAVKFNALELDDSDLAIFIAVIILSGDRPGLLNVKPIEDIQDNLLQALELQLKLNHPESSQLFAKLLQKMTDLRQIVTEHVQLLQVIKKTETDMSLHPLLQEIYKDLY
T1 sequence (P19793 1-462 partner): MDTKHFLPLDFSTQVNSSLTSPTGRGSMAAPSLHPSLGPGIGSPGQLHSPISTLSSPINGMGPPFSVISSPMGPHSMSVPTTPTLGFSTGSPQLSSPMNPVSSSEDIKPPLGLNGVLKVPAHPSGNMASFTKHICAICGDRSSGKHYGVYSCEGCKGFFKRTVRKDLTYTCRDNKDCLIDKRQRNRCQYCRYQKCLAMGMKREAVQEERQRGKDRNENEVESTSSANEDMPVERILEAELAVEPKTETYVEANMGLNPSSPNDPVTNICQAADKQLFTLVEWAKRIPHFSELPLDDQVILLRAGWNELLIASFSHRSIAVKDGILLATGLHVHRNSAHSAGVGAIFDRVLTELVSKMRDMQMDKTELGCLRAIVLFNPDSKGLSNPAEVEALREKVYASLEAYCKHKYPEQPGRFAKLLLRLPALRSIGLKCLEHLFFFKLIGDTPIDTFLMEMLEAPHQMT
Experimental: (PPARγ-RXRα Heterodimer Ligand Activity)
A PPARγ:RXRα:4ERPP/CHO-K1 cells obtained in Reference Example 5 described later were cultured in HAM F12 medium (produced by NISSUI SEIYAKU) containing 10% Fetal bovine serum (produced by Life Technologies, Inc., USA) and then inoculated to a 96-well white plate (produced by Corning Costar Corporation, USA) at the density of 2×10^4 cells/well, and cultured in a CO2 gas incubator at 37° C. overnight.
After washing the 96 well white plate with PBS (Phosphate-buffered saline), 90 μl of HAM F12 medium containing 0.1% fatty acid-free bovine serum albumin (BSA) and 10 μl of test compound were added, which was cultured in a CO2 gas incubator at 37° C. for 48 hours. After removing the medium, 40 μl of PIKKAGENE 7.5 (produced by Wako Pure Chemical Industries, Ltd.) was added. After stirring, the luciferase activity was determined using Lumistar (produced by BMG Labtechnologies GmbH, Germany).
A fold induction was calculated based on the luciferase activity of each test compound by taking the luciferase activity in the non-treatment group as 1. The values of the test compound concentration and the fold induction were analyzed using PRISM 2.01 (produced by GraphPad Software Inc. USA) to calculate the EC50 values, the effective concentration of a test compound for 50% of the maximum fold induction.
(Introduction of Human PPARγ- and RXRα-Expressing Plasmid and Reporter Plasmid into CHO-K1 Cell and Establishment of Expressed Cell)
After a CHO-K1 cell cultured in a 750 ml tissue culture flask (produced by Corning Costar Corporation, USA) containing HAM F12 medium (produced by NISSUI SEIYAKU) supplemented with 10% Fetal Bovine Serum (produced by Life Technologies, Inc., USA) was scraped by treating with 0.5 g/L trypsin-0.2 g/L EDTA (ethylenediaminetetraacetic acid) (produced by Life Technologies, Inc., USA), the cell was washed with PBS (phosphate-buffered saline) (produced by Life Technologies, Inc., USA), centrifuged (1000 rpm, 5 minutes), and then suspended in PBS. Subsequently, a DNA was introduced into the cell under the condition shown below using GENE PULSER (produced by Bio-Rad Laboratories, USA).
Namely, to a cuvette having a 0.4 cm gap, added were 8×10^6 cells and 10 μg of plasmid pVgRXR2-hPPAR γ obtained in Reference Example 3 and 10 μg of reporter plasmid pGL3-4ERPP-TK neo obtained in Reference Example 4, which was subjected to electroporation at the voltage of 0.25 kV under the capacitance of 960 μF. Subsequently, the cell was transferred into a HAM F12 medium containing 10% Fetal Bovine Serum and cultured for 24 hours and then the cell was scraped again and centrifuged, and then suspended in HAM F12 medium containing 10% Fetal Bovine Serum supplemented with 500 μg/ml of GENETICIN (produced by Life Technologies, Inc., USA) and 250 μg/ml of ZEOCIN (produced by Invitrogen, USA) and diluted to the density of 10^4 cells/ml upon inoculation to a 96-well plate (produced by Corning Costar Corporation, USA), which was cultured in a CO2 gas incubator at 37° C., whereby obtaining a GENETICIN- and ZEOCIN-resistant transformant.
Subsequently, after the transformant cell line thus obtained was cultured in a 24-well plate (produced by Corning Costar Corporation, USA), selected was a cell line in which the luciferase was expressed and induced, i.e., PPARγ:RXRα:4ERPP/CHO-K1 cell by addition of 10 μM pioglitazone hydrochloride.

[3] = percent reduction of plasma glucose compared with the non-treatment group, read-out: Hypoglycemic action (%)
[4] = percent reduction of plasma triglyceride compared with the non-treatment group, read-out: Hypolipidemic action (%)

| EC50 [2] [nM] | melting point [°C] | SMILES | inhibition in vivo at 0.001 % [1, 3] [%] | inhibition in vivo at 0.001 % [1, 4] [%] | inhibition in vivo at 0.005 % [1, 3] [%] | inhibition in vivo at 0.005 % [1, 4] [%] |
| --- | --- | --- | --- | --- | --- | --- |
| 2 |  | CCOC(=O)CCc1cn(Cc2ccc(OCc3nc(-c4ccco4)oc3C)cc2)nc1-c1ccc(F)cc1 [Example 104, ethyl 3-[3-(4-fluorophenyl)-1-[4-[2-(2-furyl)-5-methyl-4-oxazolylmethoxy]benzyl]-1H-pyrazol-4-yl]propionate] | 43 | 42 |  |  |
| 1.4 | 159 to 160 | Cc1oc(-c2cccs2)nc1COc1ccc(Cn2cc(CCC(=O)O)c(-c3ccccc3)n2)cc1 [Example 82, 3-[1-[4-[5-methyl-2-(2-thienyl)-4-oxazolylmethoxy]benzyl]-3-phenyl-1H-pyrazol-4-yl]propionic acid] |  |  | 50 | 58 |
| 53 | 126 to 127 | CCOc1nn(Cc2ccc(OCc3cn(-c4ccccn4)nc3C)cc2)cc1CCC(=O)O [Example 256, 3-[3-ethoxy-1-[4-(3-methyl-1-(2-pyridyl)-1H-pyrazol-4-ylmethoxy]benzyl]-1H-pyrazol-4-yl]propionic acid] |  |  | 57 | 16 |
| 2.5 | 152 to 153 | Cc1oc(-c2ccco2)nc1COc1ccc(Cn2cc(CCC(=O)O)c(-c3ccccc3)n2)cc1 [Example 80, 3-[1-[4-[2-(2-furyl)-5-methyl-4-oxazolylmethoxy]benzyl]-3-phenyl-1H-pyrazol-4-yl]propionic acid] |  |  | 42 | 22 |
| 3.8 | 124 to 125 | Cc1oc(-c2ccccc2)nc1COc1ccc(Cn2cc(CCC(=O)O)c(-c3ccccc3)c2)cc1 [Example 7, 3-[1-[4-(5-methyl-2-phenyl-4-oxazolylmethoxy)benzyl]-4-phenyl-3-pyrrolyl]propionic acid] |  |  | 54 | 60 |
| 3.5 | 153 to 154 | CCCc1nn(Cc2ccc(OCc3nc(-c4ccccc4)oc3C)cc2)cc1CCC(=O)O [Example 110, 3-[1-[4-(5-methyl-2-phenyl-4-oxazolylmethoxy)benzyl]-3-propyl-1H-pyrazol-4-yl]propionic acid] | 50 | 70 |  |  |
| 1.8 | 139 to 140 | Cc1oc(-c2ccccc2)nc1COc1ccc(Cn2cc(CCC(=O)O)c(-c3ccc(F)cc3)n2)cc1 [Example 100, 3-[3-(4-fluorophenyl)-1-[4-(5-methyl-2-phenyl-4-oxazolylmethoxy)benzyl]-1H-pyrazol-4-yl]propionic acid] |  |  |  |  |
| 2.7 | 86 to 87 | Cc1oc(-c2ccco2)nc1COc1ccc(Cn2cc(CCC(=O)O)c(-c3ccccc3)c2)cc1 [Example 8, 3-[1-[4-[2-(2-furyl)-5-methyl-4-oxazolylmethoxy]benzyl]-4-phenyl-3-pyrrolyl]propionic acid] |  |  |  |  |
